Drawing on patent US11117905B2, “Bisaryl heterocycles as NRF2 activators” (GLAXOSMITHKLINE INTELLECTUAL PROPERTY DEVELOPMENT LIMITED, priority 2016, dated 2021), this text covers EC50 for 15 molecules.

Bounds are passed on as bounds.

The test system of the first assay is NQO1 specific enzyme activity in BEAS-2B cells (marker for NRF2 activation). The experiment in a line: BEAS-2B NQO1 MTT Assay. The format is cell-based. The conditions noted are these: Homo sapiens, BEAS-2B, 48 h, NQO1 specific activity induction, 48 hours with compound. From the text:
NAD(P)H:quinone oxidoreductase 1 (NQO1), also called DT diaphorase, is a homodimeric FAD-containing enzyme that catalyzes obligatory NAD(P)H-dependent two-electron reductions of quinones and protects cells against the toxic and neoplastic effects of free radicals and reactive oxygen species arising from one-electron reductions. The transcription of NQO1 is finely regulated by NRF2, and thus NQO1 activity is a good marker for NRF2 activation. On day one, frozen BEAS-2B cells (ATCC) were thawed in a water bath, counted, and re-suspended at a concentration of 250,000 cells/mL. Fifty microliters of cells were plated in 384 well black clear-bottomed plates. Plates were incubated at 37° C., 5% CO2 overnight. On day two, plates were centrifuged and 50 nL of compound or controls were added to the cells. Plates were then incubated at 37° C., 5% CO2 for 48 hours. On day four, medium was aspirated from the plate and crude cell lysates were made by adding 13 uL of 1× Cell Signaling Technologies lysis buffer with 1 Complete, Mini, EDTA-free Protease Inhibitor Tablet (Roche) for each 10 mL of lysis buffer. After lysis plates were incubated for 20 minutes at room temperature. Two microliters of lysate were removed for use in Cell Titer Glo assay (Promega) and MTT cocktail was prepared (Prochaska et. al. 1998) for measurement of NQO1 activity. Fifty microliters of MTT cocktail is added to each well, plate is centrifuged, and analyzed on an Envision plate reader (Perkin Elmer) using Absorbance 570 nm label for 30 minutes. Product formation was measured kinetically and the pEC50 of NQO1 specific activity induction was calculated by plotting the change in absorbance (Delta OD/min) versus the log of compound concentration followed by 3-parameter fitting.
pEC50 is the negative log of the EC50.
EC50s<1 nM (+++++), EC50s 1 nM-10 nM (++++), EC50s 10 nM-100 nM (+++), EC50s 100 nM-1 uM (++), EC50s 1 uM-10 uM (+), EC50s>10 uM (−), or were not determined (ND).
As for `CC[C@@H]1CN(Cc2cc([C@H](CC(=O)O)c3ccc4c(nnn4CC)c3C)sc2C)S(=O)(=O)c2cnccc2O1` [Example 47, (R)-3-(4-(((R)-4-Ethyl-1,1-dioxido-3,4-dihydro-2H-pyrido[4,3-b][1,4,5]oxathiazepin-2-yl)methyl)-5-methylthiophen-2-yl)-3-(1-ethyl-4-methyl-1H-benzo[d][1,2,3]triazol-5-yl)propanoic Acid], the EC50 (commonly the concentration needed to bring the measured effect to its halfway point) fell in the range of 10 to 100 nM.

As to `CC[C@@H]1CN(Cc2cc([C@@H](c3ccc4c(nnn4CC)c3F)C(C)(C)C(=O)O)sc2Cl)S(=O)(=O)c2ccccc2O1` [Example 53, (R)-3-(5-Chloro-4-(((R)-4-ethyl-1,1-dioxido-3,4-dihydro-2H-benzo[b][1,4,5]oxathiazepin-2-yl)methyl)thiophen-2-yl)-3-(1-ethyl-4-fluoro-1H-benzo[d][1,2,3]triazol-5-yl)-2,2-dimethylpropanoic Acid], the EC50 was less than 1 nM.

`CC[C@@H]1CN(Cc2cc([C@H](c3ccc4c(nnn4CC)c3C)C(C)(C)C(=O)O)sc2C)S(=O)(=O)c2ccccc2O1` [Example 11, (R)-3-(4-(((R)-4-Ethyl-1,1-dioxido-3,4-dihydro-2H-benzo[b][1,4,5]oxathiazepin-2-yl)methyl)-5-methylthiophen-2-yl)-3-(1-ethyl-4-methyl-1H-benzo[d][1,2,3]triazol-5-yl)-2,2-dimethylpropanoic Acid]: the EC50 fell in the range of 10 to 100 nM.

For `CCn1nnc2c(C)c([C@H](c3cc(CN4C[C@@H](C)Cc5ncccc5S4(=O)=O)c(C)s3)C(C)(C)C(=O)O)ccc21` [Example 19, (S)-3-(1-Ethyl-4-methyl-1H-benzo[d][1,2,3]triazol-5-yl)-2,2-dimethyl-3-(5-methyl-4-(((S)-4-methyl-1,1-dioxido-4,5-dihydropyrido[2,3-f][1,2]thiazepin-2(3H)-yl)methyl)thiophen-2-yl)propanoic Acid], the EC50 is less than 1 nM.

In the case of `CC[C@@H]1CN(Cc2cc([C@@H](CC(=O)O)c3ccc4c(nnn4CC)c3C)sc2C)S(=O)(=O)c2cccnc2O1` [Example 24, (S)-3-(4-(((R)-4-Ethyl-1,1-dioxido-3,4-dihydro-2H-pyrido[2,3-b][1,4,5]oxathiazepin-2-yl)methyl)-5-methylthiophen-2-yl)-3-(1-ethyl-4-methyl-1H-benzo[d][1,2,3]triazol-5-yl)propanoic Acid], the EC50 fell in the range of 100 to 1000 nM.

As to `CC[C@@H]1CN(Cc2cc([C@@H](c3ccc4c(nnn4CC)c3C)C(C)(C)C(=O)O)sc2Cl)S(=O)(=O)c2cccnc2O1` [Example 54, (S)-3-(5-Chloro-4-(((R)-4-ethyl-1,1-dioxido-3,4-dihydro-2H-pyrido[2,3-b][1,4,5]oxathiazepin-2-yl)methyl)thiophen-2-yl)-3-(1-ethyl-4-methyl-1H-benzo[d][1,2,3]triazol-5-yl)-2,2-dimethylpropanoic Acid], the EC50 is less than 1 nM.

In the case of `CC[C@@H]1CN(Cc2cc([C@@H](CCc3cn(CC)nn3)C(C)(C)C(=O)O)sc2C)S(=O)(=O)c2cccnc2O1` [Example 59, (S)-3-(4-(((R)-4-Ethyl-1,1-dioxido-3,4-dihydro-2H-pyrido[2,3-b][1,4,5]oxathiazepin-2-yl)methyl)-5-methylthiophen-2-yl)-5-(1-ethyl-1H-1,2,3-triazol-4-yl)-2,2-dimethylpentanoic Acid], the EC50 was in the range of 1 to 10 nM.

On to `CCn1nnc2c(C)c([C@H](c3cc(CN4CC(C)(C)Oc5ncccc5S4(=O)=O)c(C)s3)C(C)(C)C(=O)O)ccc21` [Example 8, (S)-3-(4-((4,4-Dimethyl-1,1-dioxido-3,4-dihydro-2H-pyrido[2,3-b][1,4,5]oxathiazepin-2-yl)methyl)-5-methylthiophen-2-yl)-3-(1-ethyl-4-methyl-1H-benzo[d][1,2,3]triazol-5-yl)-2,2-dimethylpropanoic Acid], for which the EC50 was in the range of 1 to 10 nM.

With `CCn1nnc2c(C)c([C@H](c3cc(CN4C[C@@H](C)Cc5ncccc5S4(=O)=O)n(C)n3)C(C)(C)C(=O)O)ccc21` [Example 31, (S)-3-(1-Ethyl-4-methyl-1H-benzo[d][1,2,3]triazol-5-yl)-2,2-dimethyl-3-(1-methyl-5-(((S)-4-methyl-1,1-dioxido-4,5-dihydropyrido[2,3-f][1,2]thiazepin-2(3H)-yl)methyl)-1H-pyrazol-3-yl)propanoic Acid], the EC50 fell in the range of 100 to 1000 nM.

Consider `CC[C@H]1Cc2ccc(C(F)(F)F)cc2S(=O)(=O)N(Cc2nc([C@@H](c3ccc4c(nnn4CC)c3C)C(C)(C)C(=O)Nc3cccnc3)sc2C)C1` [Example 48, (S)-3-(4-(((S)-4-Ethyl-1,1-dioxido-8-(trifluoromethyl)-4,5-dihydrobenzo[f][1,2]thiazepin-2(3H)-yl)methyl)-5-methylthiazol-2-yl)-3-(1-ethyl-4-methyl-1H-benzo[d][1,2,3]triazol-5-yl)-2,2-dimethyl-N-(pyridin-3-yl)propanamide], for which the EC50 lay in the range of 10 to 100 nM.

Consider `CC[C@@H]1CN(Cc2nc([C@@H](c3ccc4c(nnn4CC)c3C)C(C)(C)C(=O)O)sc2C)S(=O)(=O)c2ncccc2O1` [Example 29, (S)-3-(4-(((R)-4-Ethyl-1,1-dioxido-3,4-dihydro-2H-pyrido[3,2-b][1,4,5]oxathiazepin-2-yl)methyl)-5-methylthiazol-2-yl)-3-(1-ethyl-4-methyl-1H-benzo[d][1,2,3]triazol-5-yl)-2,2-dimethylpropanoic Acid], for which the EC50 is 1 to 10 nM.

For the molecule `CCn1nnc2c(C)c([C@H](c3cc(CN4CCC[C@H](n5cccn5)C4)c(C)s3)C(C)(C)C(=O)O)ccc21` [Example 32, (S)-3-(4-(((S)-3-(1H-Pyrazol-1-yl)piperidin-1-yl)methyl)-5-methylthiophen-2-yl)-3-(1-ethyl-4-methyl-1H-benzo[d][1,2,3]triazol-5-yl)-2,2-dimethylpropanoic acid], the EC50 was in the range of 100 to 1000 nM.

For `CC[C@@H]1CN(Cc2cc([C@@H](CCc3cn(CC)nn3)C(C)(C)C(=O)O)sc2C)S(=O)(=O)c2ccccc2O1` [Example 63, (S)-3-(4-(((R)-4-Ethyl-1,1-dioxido-3,4-dihydro-2H-benzo[b][1,4,5]oxathiazepin-2-yl)methyl)-5-methylthiophen-2-yl)-5-(1-ethyl-1H-1,2,3-triazol-4-yl)-2,2-dimethylpentanoic Acid], the EC50 lay within 1 to 10 nM.

Still in this assay, the particulars now being: NQO1 specific activity induction, 48 hours with compound.
In the case of `CC[C@@H]1CN(Cc2cc(C(CC(=O)O)c3ccc4c(nnn4CC)c3C)sc2C)S(=O)(=O)c2ccccc2O1` (single isomer, unassigned; isomer 1) [Example 20, (R or S)-3-(4-(((R)-4-Ethyl-1,1-dioxido-3,4-dihydro-2H-benzo[b][1,4,5]oxathiazepin-2-yl)methyl)-5-methylthiophen-2-yl)-3-(1-ethyl-4-methyl-1H-benzo[d][1,2,3]triazol-5-yl)propanoic acid Isomer 1], the EC50 lay within 10 to 100 nM.

Consider `CC[C@@H]1CN(Cc2nc(C(c3ccc4c(nnn4CC)c3C)C(C)(C)C(=O)O)sc2C)S(=O)(=O)c2ccccc2O1` (single isomer, unassigned; isomer 1) [Example 13, (R or S)-3-(4-(((R)-4-Ethyl-1,1-dioxido-3,4-dihydro-2H-benzo[b][1,4,5]oxathiazepin-2-yl)methyl)-5-methylthiazol-2-yl)-3-(1-ethyl-4-methyl-1H-benzo[d][1,2,3]triazol-5-yl)-2,2-dimethylpropanoic Acid Isomer 1], for which the EC50 lay in the range of 1 to 10 nM.
